The test system of series [1] is hD1 mice. Also noted: method as in Bruns et al., submitted for publication. The following applies: reserpine pretreatment; ref Bruns et al., submitted for publication; cited from earlier work.
For series [2], the system named is hD1 mice. In words: Locomotor activity (LMA) in hD1 mice. It counts as in vivo, mouse. An excerpt:
Male hD1 mice, 8–10 weeks old (weighing 18 to 25 g at the time of the experiment), were used. Monitoring of mouse LMA took place in transparent plastic shoebox cages having dimensions of 45 × 25 × 20 cm, with a 1-cm depth of wood chips for absorbent bedding, and covered with a ventilated filtered plastic cage top.
Cages were placed in a rectangular frame containing a grid of 12 photocell beams in an 8 × 4 configuration (Kinder Scientific, Poway, CA) that were positioned 2.5 cm from the floor of the cage for the detection of body movements (ambulations), which were recorded by computer for analysis. Mice were placed inside individual LMA boxes for 1 hour during an acclimation period. Mice were then dosed with test compounds (oral or subcutaneous) and were replaced inside individual LMA boxes for the start of LMA. Photocell activity (total ambulations) was collected for 60 minutes using software from Hamilton Kinder (Poway, CA).
Calculation of data based on total ambulations was done using Excel (Microsoft, Redmond, WA). Graphing and statistical analysis of data were done using one-way analysis of variance followed by Dunnett’s multiple comparison test using GraphPad Prism.

Entries after “also recorded” stand apart in the source; their conditions may differ.

In the case of `C[C@H]1c2cccc(C(C)(C)O)c2C[C@H](CO)N1C(=O)Cc1c(Cl)cccc1Cl` [DETQ, 2-(2,6-dichlorophenyl)-1-((1S,3R)-3-(hydroxymethyl)-5-(2-hydroxypropan-2-yl)-1-methyl-3,4-dihydroisoquinolin-2(1H)-yl)ethan-1-one], in the series with hD1 mice [1], the “Response in hD1 mice depleted of dopamine by reserpine” value was “did not reverse hypokinesia; also recorded: absent”. In addition, the 50% effective concentration (EC50) (usually the concentration at which the effect is half-maximal) in the series on hD1 mice [2] (Mus musculus, four-parameter fit, unbound brain concentration, hD1 mice, read-out: EC50 in LMA versus unbound brain levels) was found to be 9.2 nM. In addition, the “Overt adverse behavioral effects” value in the series with hD1 mice [2] (any of the doses (up to 240 mg/kg)) is “no overt adverse behavioral effects were observed”. In the series with hD1 mice [2] (four-parameter fit), the “Bottom of LMA versus unbound brain level curve” value is on record as 40 % of control and the “Top of LMA versus unbound brain level curve” value is reported as 1,590 % of control. Besides, in the series on hD1 mice [2] (hD1 mice, 240 mg/kg oral twice daily), the “LMA response after twice-daily dosing” value is “No tachyphylaxis”. The “LMA response on repeated once-a-day dosing” value with hD1 mice [2] (hD1 mice, once daily for 4 days) is listed as “undiminished on day 4”. In addition, in the series with hD1 mice [2] (hD1 mice, DETQ up to 240 mg/kg), the “Shape of LMA dose-response curve” value was “did not show any drop-off at higher doses”. Moreover, the “ED4X (dose causing a 4-fold increase in LMA)” value with hD1 mice [2] (habituated hD1 mice, oral) is on record as 7.2 mg/kg.
